Legend:
Format in all cases: in vivo, human
[1] = test system: subjects with mild-to-moderate Alzheimer's disease; test: Responder analysis: PK/PD effects (ADAS-Cog)
Source text: The response by plasma level of Test Compound was also investigated. A ‘responder’ definition of >3 pt ADAS-Cog effect was utilized. The plasma levels of responders and nonresponders informed a logistic regression model. […] FIG. 12 illustrates the mean plasma concentration levels (including the 95% confidence levels and the measured extremes) of Test Compound, and FIG. 13 illustrates the Exposure Response analysis, using plasma concentration levels of Test Compound and ADAS-Cog-13 changes. The relationship between dose and likelihood of clinical response, as defined by either an ADAS-Cog effect ≧3 points, or ≧2 points, is summarized in Table 19: […]

[2] = test system: subjects with mild-to-moderate Alzheimer's disease; test: Clinical study, ADCS-ADL
Description: (§1) A double-blind study of 3 doses of the Test Composition or placebo in subjects with mild-to-moderate Alzheimer's disease, with or without receiving a concomitant AChEI for 24 weeks (168 days) after a 7 day placebo run-in period.
(§2) Total number of subjects in the safety population was 409 subjects that were dosed once-daily with a dosing-capsule for a period of 168 days. The subjects dosed, and the particular dosing, included: 104 subjects dosed with Placebo capsule; and 305 subjects dosed with Test Compound (104 subjects with 0.3 mg capsules; 101 subjects with 1 mg capsules; and 100 subjects with 2 mg capsules).
(§3) The population included generally healthy male or female subjects, aged 50 to ≦85 years, with mild-to-moderate Alzheimer's disease, consistent with criteria defined by a Work Group of the National Institute of Neurological and Communicative Disorders and Stroke—Alzheimer's Disease and Related Disorders Association, of mild to moderate severity, with a Mini-Mental State Examination score (MMSE) 14 and ≦24, and a Clinical Dementia Rating Scale Sum of the Boxes (CDR-SB) score of 2. […] Subjects were required to be either receiving a stable dose of an AChEI (donepezil or rivastigmine) for at least 3 months before screening or not presently being treated with an AChEI or mementine for at least 30 days.
(§4) Subjects with mild to moderate Alzheimer's disease receiving stable treatment with an AChEI (donepezil or rivastigmine: ‘add-on’ subjects) or not receiving an AChEI (de novo subjects′) received 0.3, 1, or 2 mg doses of Test Composition or placebo for up to 24 weeks (168 days) of double-blind treatment, after a 7-day single-blind, placebo run-in period to assess study drug compliance. A follow-up telephone contact was conducted approximately 15 days after the last dose of study drug for questions regarding safety.
Alzheimer's Disease Cooperative Study Group-Activities of Daily Living Scale (ADCS-ADL, or sometimes referred to as ADCS-ADL-23):
The ADCS-ADL-23 test employed herein is based on the procedure developed by Galasko D, Bennett D, Sano M, et al., Alz Dis Assoc Disord (1997) 11(2): S33-S39.
The ADCS-ADL test assesses the actual performance of specific actions and behaviors by a patient as observed by a caregiver/informant.

[3] = test system: subjects with mild-to-moderate Alzheimer's disease; test: Clinical study, ADAS-Cog-11
Description: as §1, §2, §3, §4
Cognitive Part of the Alzheimer's Disease Assessment Scale (ADAS-Cog-11)
The ADAS-cog-11 test employed herein is based on the procedure developed in the adapted version of the Administration and Scoring Manual for the Alzheimer's Disease Assessment Scale, 1994 Revised Edition, Richard C. Mohs, Ph.D., © 1994 by The Mount Sinai School of Medicine, manual modified by Donald Connor, Ph.D., and Kimberly Schafer, M.S. (3/98).
The ADAS-cog-11 test includes the following test items: (1) Word Recall, (2) Naming Objects/Fingers, (3) Commands, (4) Construction Praxis, (5) Ideational Praxis, (6) Orientation, (7) Word Recognition, (8) Remembering Test Instructions, (9) Spoken Language Ability, (10) Word Finding Difficulty, and (11) Comprehension.
The ADAS-cog-11 total score ranges from 0 to 70 (higher scores indicate more severe impairment). A decrease from baseline indicates improvement.

[4] = test system: subjects with mild-to-moderate Alzheimer's disease; test: Clinical study, Controlled Oral Word Association Test (COWAT); settings: 2 mg dose versus Placebo
Description: as §1, §2
The population included generally healthy male or female subjects, aged 50 to ≦85 years, with mild-to-moderate Alzheimer's disease, consistent with criteria defined by a Work Group of the National Institute of Neurological and Communicative Disorders and Stroke—Alzheimer's Disease and Related Disorders Association, of mild to moderate severity, with a Mini-Mental State Examination score (MMSE) 14 and ≦24, and a Clinical Dementia Rating Scale Sum of the Boxes (CDR-SB) score of 2. […]
The COWAT test includes (1) asking the subject to name words beginning with a specific letter (e.g., F, A, S), (2) each of 3 trials is timed for 60 seconds, and (3) the score is calculated by the number of new words beginning with the assigned letter.

SMILES: Cl.O.O=C(N[C@H]1CN2CCC1CC2)c1cc2cccc(Cl)c2s1 [Test Compound, (R)-7-chloro-N-(quinuclidin-3-yl)benzo[b]thiophene-2-carboxamide, hydrochloride, monohydrate]
- Responders, ADAS-Cog (≧2 points) ([1]; 0.3 mg): 31%
- Responders, ADAS-Cog (≧3 points) ([1]; 0.3 mg): 25%
- Responders, ADAS-Cog (≧2 points) ([1]; 1 mg): 33%
- Responders, ADAS-Cog (≧3 points) ([1]; 1 mg): 28%
- Responders, ADAS-Cog (≧2 points) ([1]; 2 mg): 51%
- Responders, ADAS-Cog (≧3 points) ([1]; 2 mg): 45%
- Relationship of plasma level and likelihood of being a responder ([1]; responder >3 pt ADAS-Cog effect, logistic regression model, p=0.003): significant plasma level/exposure response relationship exists
- ADCS-ADL (Baseline was assigned the value of zero @ Week 0) ([2]; 0.3 mg daily dose, Week 4): 0.07926
- ADCS-ADL (Baseline was assigned the value of zero @ Week 0) ([2]; 0.3 mg daily dose, Week 12): −0.5757
- ADCS-ADL (Baseline was assigned the value of zero @ Week 0) ([2]; 0.3 mg daily dose, Week 18): −0.6255
- ADCS-ADL (Baseline was assigned the value of zero @ Week 0) ([2]; 0.3 mg daily dose, Week 23): −1.8992
- ADCS-ADL (Baseline was assigned the value of zero @ Week 0) ([2]; 1 mg daily dose, Week 4): 0.509
- ADCS-ADL (Baseline was assigned the value of zero @ Week 0) ([2]; 1 mg daily dose, Week 12): 0.9138
- ADCS-ADL (Baseline was assigned the value of zero @ Week 0) ([2]; 1 mg daily dose, Week 18): 0.8306
- ADCS-ADL (Baseline was assigned the value of zero @ Week 0) ([2]; 1 mg daily dose, Week 23): −0.3467
- ADCS-ADL (Baseline was assigned the value of zero @ Week 0) ([2]; 2 mg daily dose, Week 4): 0.908
- ADCS-ADL (Baseline was assigned the value of zero @ Week 0) ([2]; 2 mg daily dose, Week 12): 0.8426
- ADCS-ADL (Baseline was assigned the value of zero @ Week 0) ([2]; 2 mg daily dose, Week 18): 0.8097
- ADCS-ADL (Baseline was assigned the value of zero @ Week 0) ([2]; 2 mg daily dose, Week 23): 0.3166
- ADCS-ADL Effect Size ([2]; 2 mg dose versus Placebo): 0.20
- ADAS-Cog-11 (Baseline was assigned the value of zero @ Week 0) ([3]; 0.3 mg daily dose, Week 4): −0.3534
- ADAS-Cog-11 (Baseline was assigned the value of zero @ Week 0) ([3]; 0.3 mg daily dose, Week 12): −0.2129
- ADAS-Cog-11 (Baseline was assigned the value of zero @ Week 0) ([3]; 0.3 mg daily dose, Week 18): −0.067
- ADAS-Cog-11 (Baseline was assigned the value of zero @ Week 0) ([3]; 0.3 mg daily dose, Week 23): 0.2755
- ADAS-Cog-11 (Baseline was assigned the value of zero @ Week 0) ([3]; 1 mg daily dose, Week 4): −0.3412
- ADAS-Cog-11 (Baseline was assigned the value of zero @ Week 0) ([3]; 1 mg daily dose, Week 12): −0.8317
- ADAS-Cog-11 (Baseline was assigned the value of zero @ Week 0) ([3]; 1 mg daily dose, Week 18): 0.1063
- ADAS-Cog-11 (Baseline was assigned the value of zero @ Week 0) ([3]; 1 mg daily dose, Week 23): 0.3534
- ADAS-Cog-11 (Baseline was assigned the value of zero @ Week 0) ([3]; 2 mg daily dose, Week 4): −0.0031
- ADAS-Cog-11 (Baseline was assigned the value of zero @ Week 0) ([3]; 2 mg daily dose, Week 12): −0.998
- ADAS-Cog-11 (Baseline was assigned the value of zero @ Week 0) ([3]; 2 mg daily dose, Week 18): −1.1519
- ADAS-Cog-11 (Baseline was assigned the value of zero @ Week 0) ([3]; 2 mg daily dose, Week 23): −1.1188
- ADAS-Cog 11 Effect Size ([3]; 2 mg dose versus Placebo): 0.34
- COWAT Effect Size [4]: 0.35
